From article PMC7753147, “High-throughput determination of protein affinities using unmodified peptide libraries in nanomolar scale” (iScience, 2020)

Experiments:
gephE = assay: µSPOT peptide microarray binding assay with recombinant gephE
native geph = assay: µSPOT peptide microarray binding assay with native geph from mouse brain lysate
FL-geph = assay: µSPOT peptide microarray binding assay with full-length geph
[1] = µSPOT peptide microarray, GlyRβ full positional scan, recombinant gephE, intensity normalised to wild-type sequence DLRSNDFSIVGSLPR (=1)
[2] = µSPOT peptide microarray, GlyRβ full positional scan, native geph from mouse brain lysate, intensity normalised to wild-type sequence DLRSNDFSIVGSLPR (=1)
[3] = µSPOT peptide microarray, GlyRβ full positional scan, intensity normalised to wild-type sequence DLRSNDFSIVGSLPR (=1)
[4] = µSPOT full positional scan of GlyRβ 15-mer DLRSNDFSIVGSLPR, intensity normalised to wild-type sequence (= 1)
[5] = µSPOT full positional scan of GlyRβ 15-mer DLRSNDFSIVGSLPR, native geph, intensity normalised to wild-type sequence (= 1)

gephE Binding Intensity [norm.] (gephE; [1])	Native geph Binding Intensity [norm.] (native geph; [2])	Fl-geph Binding Intensity [norm.] (FL-geph; [3])	gephE Binding Intensity [norm.] (gephE; [4])	Native geph Binding Intensity [norm.] (native geph; [5])	Fl-geph Binding Intensity [norm.] (FL-geph; [4])	Sequence
0.42	0.2	0.32	–	–	–	DLRSNDESIVGSLPR [GlyRβ_Full_Positional_Scan_131, GlyR β 414-428 variant F420E]
0.51	0.47	0.65	–	–	–	DLRSNDFSIAGSLPR [GlyRβ_Full_Positional_Scan_181, GlyR β 414-428 variant V423A]
0.95	1.48	1.28	–	–	–	DLLSNDFSIVGSLPR [GlyRβ_Full_Positional_Scan_044]
0.96	1.37	1.03	–	–	–	DLYSNDFSIVGSLPR [GlyRβ_Full_Positional_Scan_049]
0.29	0.17	0.29	–	–	–	DLRSNDFSDVGSLPR [GlyRβ_Full_Positional_Scan_170, GlyR β 414-428 variant I422D]
0.73	0.24	0.79	–	–	–	DLRSNDFWIVGSLPR [GlyRβ_Full_Positional_Scan_148, GlyR β 414-428 variant S421W]
–	–	–	0.99	1.23	0.87	DLRSNDFSIVGSYPR [GlyRβ_Full_Positional_Scan_249]
0.88	0.53	0.94	–	–	–	DKRSNDFSIVGSLPR [GlyRβ_Full_Positional_Scan_034]
–	–	–	0.74	1.16	1.17	DLRSNDFSIVGNLPR [GlyRβ_Full_Positional_Scan_239]
0.77	1.59	1.3	–	–	–	DLMSNDFSIVGSLPR [GlyRβ_Full_Positional_Scan_058]
0.97	1.09	0.97	–	–	–	DMRSNDFSIVGSLPR [GlyRβ_Full_Positional_Scan_038]
0.54	0.34	0.65	–	–	–	DLRSNDPSIVGSLPR [GlyRβ_Full_Positional_Scan_125, GlyR β 414-428 variant F420P]
0.96	1.18	0.98	–	–	–	DNRSNDFSIVGSLPR [GlyRβ_Full_Positional_Scan_039]
–	–	–	0.49	0.28	0.47	DLRSNDFSIVTSLPR [GlyRβ_Full_Positional_Scan_216, GlyR β 414-428 variant G424T]
0.41	0.21	0.5	–	–	–	DLRSNDFSIVPSLPR [GlyRβ_Full_Positional_Scan_205, GlyR β 414-428 variant G424P]
–	–	–	0.58	0.4	0.82	DLRSNDFSIVGSLDR [GlyRβ_Full_Positional_Scan_270]
0.53	0.29	0.9	–	–	–	DLRSNDFDIVGSLPR [GlyRβ_Full_Positional_Scan_150, GlyR β 414-428 variant S421D]
0.96	0.77	1.03	–	–	–	FLRSNDFSIVGSLPR [GlyRβ_Full_Positional_Scan_007]
–	–	–	0.61	0.32	0.72	DLRSNDFSIVGSLWR [GlyRβ_Full_Positional_Scan_268]
0.66	0.36	0.71	–	–	–	DLRSNDFCIVGSLPR [GlyRβ_Full_Positional_Scan_157, GlyR β 414-428 variant S421C]
–	–	–	0.87	0.8	1.06	DLRSNDFSIVGRLPR [GlyRβ_Full_Positional_Scan_232]

gephE Binding Intensity [norm.] (gephE; [1])	Native geph Binding Intensity [norm.] (native geph; [2])	Fl-geph Binding Intensity [norm.] (FL-geph; [3])	gephE Binding Intensity [norm.] (gephE; [4])	Native geph Binding Intensity [norm.] (native geph; [5])	Fl-geph Binding Intensity [norm.] (FL-geph; [4])	Sequence
–	–	–	0.66	0.32	0.74	DLRSNDFSIVGSLLR [GlyRβ_Full_Positional_Scan_264]
0.41	0.3	0.64	–	–	–	DLRSNDFSISGSLPR [GlyRβ_Full_Positional_Scan_195, GlyR β 414-428 variant V423S]
0.47	0.2	0.79	–	–	–	DLRSNDFEIVGSLPR [GlyRβ_Full_Positional_Scan_151, GlyR β 414-428 variant S421E]
0.82	0.38	0.7	–	–	–	DLRSNYFSIVGSLPR [GlyRβ_Full_Positional_Scan_109]
–	–	–	0.47	0.18	0.5	DLRSNDFSIVHSLPR [GlyRβ_Full_Positional_Scan_213, GlyR β 414-428 variant G424H]
–	–	–	0.57	0.17	0.6	DLRSNDFSIVRSLPR [GlyRβ_Full_Positional_Scan_212, GlyR β 414-428 variant G424R]
0.8	0.23	0.92	–	–	–	DLRSNDFRIVGSLPR [GlyRβ_Full_Positional_Scan_152, GlyR β 414-428 variant S421R]
–	–	–	0.65	0.49	0.95	DLRSNDFSIVGSLIR [GlyRβ_Full_Positional_Scan_263]
–	–	–	0.62	0.44	1.01	DLRSNDFSIVGLLPR [GlyRβ_Full_Positional_Scan_224]
0.81	0.64	0.8	–	–	–	DLRSNCFSIVGSLPR [GlyRβ_Full_Positional_Scan_117]
0.7	0.41	1.03	–	–	–	DLRSNDFSIQGSLPR [GlyRβ_Full_Positional_Scan_200, GlyR β 414-428 variant V423Q]
–	–	–	0.72	0.5	0.92	DLRSNDFSIVGSLSR [GlyRβ_Full_Positional_Scan_275]
1.09	1.45	1.38	–	–	–	DLDSNDFSIVGSLPR [GlyRβ_Full_Positional_Scan_050]
0.85	1.28	1.17	–	–	–	DLNSNDFSIVGSLPR [GlyRβ_Full_Positional_Scan_059]
0.9	0.77	0.9	–	–	–	DLRSGDFSIVGSLPR [GlyRβ_Full_Positional_Scan_082]
0.52	0.38	0.76	–	–	–	DLRSNDVSIVGSLPR [GlyRβ_Full_Positional_Scan_126, GlyR β 414-428 variant F420V]
–	–	–	0.77	0.89	0.88	DLRSNDFSIVGMLPR [GlyRβ_Full_Positional_Scan_238]
1.05	0.8	1.18	–	–	–	VLRSNDFSIVGSLPR [GlyRβ_Full_Positional_Scan_006]
1.15	0.86	1.09	–	–	–	ILRSNDFSIVGSLPR [GlyRβ_Full_Positional_Scan_003]
0.22	0.15	0.16	–	–	–	DLRSNDFSIVDSLPR [GlyRβ_Full_Positional_Scan_210, GlyR β 414-428 variant G424D]
0.47	0.36	0.51	–	–	–	DLRSNDTSIVGSLPR [GlyRβ_Full_Positional_Scan_136, GlyR β 414-428 variant F420T]
